Data on two compounds can be found in patent publication US9370508B2, “Imidazoquinolines as dual lipid kinase and mTOR inhibitors” (NOVARTIS AG, priority 2007, dated 2016).

The subject of test [1] is ribosomal protein S6 phosphorylation. Kind of test: 96-well in-cell western assay of ribosomal protein S6 phosphorylation in HeLa cells. It is filed as cell-based. Particulars: Homo sapiens, 1 h, 60 min stimulation with nutrients in the presence or absence of 100 nM insulin, anti-phospho(Ser235-236)S6, read-out: induced phosphorylation of S6, mean IC50. Here is the method: A 96-well “in-cell western” assay is used to quantitate the levels of ribosomal protein S6 phosphorylation following treatment of HeLa cells with compounds. HeLa cells are seeded on to 96-wells plates (5000 cells/well), cultured for 72 h prior to serum deprivation for 18 h, in a humidified environment of 5% CO2 at 37° C. throughout. Thereafter, they are incubated in 200 μL of starve-medium for 180 min prior to a 60 min stimulation with 200 μL of test-medium. All solutions are pre-warmed for 30 min; the 96-well plates are sealed (Millipore) and incubated in a non-CO2 incubator at 37° C. during the starvation and stimulation protocol. […] After a 48 h blocking step in Tris buffered saline pH=7.2 containing 0.1% Triton-X100 and 0.1% bovine serum albumin, at 4° C., fixed cells are incubated overnight at 4° C. with the anti-phospho(Ser235-236)S6 primary antibody (Cell Signaling Technologies #2211 [can be substituted with Cell Signaling Technologies #2215 to quantitate S6 phosphorylation at Ser240-244]; 50 μL at 1:300 in blocking-solution), washed (8×200 μL TBS) before 100 μL of europium-labeled anti-rabbit secondary antibody (Perkin-Elmer; 2.4 μg/mL) is added for 90 min at room temperature in the dark. After a final wash (8×200 μL TBS), 100 μL of Delphia™ Enhancement-solution is added to each well and the fluorescence quantified 120 min later using an Envision 2101 (Perkin-Elmer). […]

The target of another test is T1, mTOR enzyme (Homo sapiens, UniProt P42345).
T1 construct: purchased Calbiochem CBA055
The experiment in a line: K-LISA mTOR activity kit biochemical assay. The settings on record: GST-S6K1 substrate, 100 μM ATP, 30 minutes at 30° C., anti-phospho Thr389 detection; read-out: mTOR kinase activity, mean IC50.

Experimental for mTOR enzyme: This mixture is then transferred to a glutathione-coated 96-well plate pre-incubated with GST-S6K1 recombinant protein. Kinase reactions are initiated by adding kinase buffer containing 100 μM ATP and are incubated for 30 minutes at 30° C. mTOR activity is quantitated using an anti-phospho Thr389-HRP conjugate detection system. Wortmannin served as control compound for the mTOR kinase activity assay.

Consider `Cn1c(=O)n(-c2ccc(C(C)(C)C#N)cc2)c2c3cc(-c4cnc5ccccc5c4)ccc3ncc21` [compound 1, 2-Methyl-2-[4-(3-methyl-2-oxo-8-quinolin-3-yl-2,3-dihydro-imidazo[4,5-c]quinolin-1-yl)-phenyl]-propionitrile], for which, in test [1], the IC50 came out at 17 nM.

For `COc1ccc(-c2ccc3ncc4c(c3c2)n(-c2ccc(N3CCNCC3)c(C(F)(F)F)c2)c(=O)n4C)cn1` [compound 2, 8-(6-Methoxy-pyridin-3-yl)-3-methyl-1-(4-piperazin-1-yl-3-trifluoromethyl-phenyl)-1,3-dihydro-imidazo[4,5-c]quinolin-2-one], the IC50 was determined as 11 nM in test [1] and 1.4 nM at mTOR enzyme.
